Source: patent US12233045B2, “Therapeutic agent for treating bradyarrhythmia” (OSAKA UNIVERSITY, priority 2018, dated 2025)
Where a chain is given by its changes, count along the chain named.

Tests used:
KCNJ3 N83H KACh channel = target: T1, KCNJ3 N83H KACh channel (Homo sapiens, UniProt P48544+P48549, N83H); assay: two-electrode voltage clamp, KACh channel expressed in Xenopus laevis oocytes (N83H mutant); type: cell-based; settings: for inhibition of the N83H mutant compared with the WT KACh channel: N83H vs WT; for inhibitory effect on the KCNJ3 N83H KACh channel: two-electrode voltage clamp
T1 construct: expressed in transfected cells; host or cells: Xenopus laevis oocytes (cRNA injection)
T1 sequence (P48549 1-501 N83H): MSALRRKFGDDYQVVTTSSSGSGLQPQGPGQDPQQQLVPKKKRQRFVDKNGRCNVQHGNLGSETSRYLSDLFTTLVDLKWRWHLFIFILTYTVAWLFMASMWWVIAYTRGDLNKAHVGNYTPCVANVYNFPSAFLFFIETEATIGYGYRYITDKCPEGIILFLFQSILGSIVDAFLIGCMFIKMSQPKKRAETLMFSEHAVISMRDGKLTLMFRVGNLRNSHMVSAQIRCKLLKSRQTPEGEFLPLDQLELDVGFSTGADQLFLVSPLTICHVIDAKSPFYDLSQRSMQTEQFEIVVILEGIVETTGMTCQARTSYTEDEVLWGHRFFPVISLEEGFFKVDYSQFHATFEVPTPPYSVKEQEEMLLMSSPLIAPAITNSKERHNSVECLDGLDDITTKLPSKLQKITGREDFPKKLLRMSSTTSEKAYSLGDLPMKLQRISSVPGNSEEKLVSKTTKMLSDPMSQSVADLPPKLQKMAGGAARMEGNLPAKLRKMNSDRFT
T1 sequence (P48544 1-419): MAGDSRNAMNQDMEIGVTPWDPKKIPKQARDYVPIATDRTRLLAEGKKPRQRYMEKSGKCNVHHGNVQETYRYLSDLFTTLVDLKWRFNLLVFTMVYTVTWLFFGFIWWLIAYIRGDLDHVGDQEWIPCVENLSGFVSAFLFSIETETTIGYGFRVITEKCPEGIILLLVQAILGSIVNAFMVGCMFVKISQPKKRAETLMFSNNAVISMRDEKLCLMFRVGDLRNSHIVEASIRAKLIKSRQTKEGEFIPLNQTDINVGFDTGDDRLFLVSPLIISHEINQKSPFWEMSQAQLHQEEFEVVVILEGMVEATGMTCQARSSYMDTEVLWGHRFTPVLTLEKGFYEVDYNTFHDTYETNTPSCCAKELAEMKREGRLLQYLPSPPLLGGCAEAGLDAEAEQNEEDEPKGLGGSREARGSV
Source text: (§1) By co-expressing with […] subunits of G protein, a whole cell current was able to be directly measured via the activated KACh channel.
The coding sequence of human KCNJ3 WT was obtained by amplifying a human KCNJ3 cDNA clone (commercially available from Invitrogen) by PCR, and subcloning it into a pCS2+ vector (commercially available from Addgene). The c.247A>C mutation providingKCNJ3 N83H was introduced by site-directed mutagenesis through PCR. Similarly, the human KCNJ5 coding sequence was obtained by amplifying a human KCNJ5 cDNA clone (commercially available from Invitrogen) by PCR and subcloning it into a pCS2+ vector. The cRNAs of KCNJ3 WT, KCNJ3 N83H and KCNJ5 were synthesized from linearized cDNA using an mMESSAGE mMACHINE kit (commercially available from Life Technologies) vitro transcription. cRNA of KCNJ3 N83H or KCNJ3 WT and cRNA of wild type KCNJ5 were injected into Xenopus laevis oocytes together with cRNA of β and γ subunits of G protein, and incubated in an ND96 solution at 18° C. for 48 to 96 hours.
For the extracellular fluid, the pH of a test bath solution containing 40 mM potassium chloride, 50 mM sodium chloride, 3 mM magnesium chloride M, 0.15 mM niflumic acid, and 5 mMHEPES was adjusted to 7.4 with potassium hydroxide.
(§2) The whole cell current via the expressed KACh channel was measured by a two-electrode voltage clamp method using a GeneClamp 500 amplifier (commercially available from Molecular Devices). The compound (II) dissolved in DMSO, and a perfusate was prepared so that the final concentration was 0.001, 0.01, 0.03, 0.1, 1, and 10 μM. The perfusate containing the compound (II) with a low concentration was added when the amount of current was almost steady, and the amount of current was then recorded while replacing it with a perfusate with a high concentration in the same manner. When the recording was ended, Ba^2+ (3 mM) was added, and the intrinsic leak current was measured. The measured data was analyzed using Clampfit 10.2 (commercially available from Molecular Devices). The IC50 value was calculated using GraphPad Prism version 5.00 (commercially available from GraphPad Software).

[1] = target: T2, KCNJ5 WT/W101C KACh channel (Homo sapiens, UniProt P48544+P48549, W101C); assay: two-electrode voltage clamp, W101C heterozygous mutant KACh channel in Xenopus laevis oocytes; type: cell-based; settings: 0.01, 0.1 and 1 μM
T2 construct: expressed in transfected cells; host or cells: Xenopus laevis oocytes (cRNA injection)
T2 sequence (P48544 1-419 W101C): T1 sequence (P48544 1-419) with W101C
T2 sequence (P48544 1-419): T1 sequence (P48544 1-419)
T2 sequence (P48549 1-501): T1 sequence (P48549 1-501 N83H) with H83N
Method: In Xenopus laevis oocytes, in order to imitate autosomal dominant inheritance heterozygous, equimolar amounts of cRNAs of wild type KCNJ5 (KCNJ5 WT) and KCNJ5 W101C were injected together with cRNA of wild type KCNJ3 (KCNJ3 WT), the W101C heterozygous mutant KACh channel was expressed, electrodes were inserted, and the channel activity was confirmed by a two-electrode voltage clamp method.
The above human KCNJ5 cDNA clone (commercially available from Invitrogen) was amplified by PCR and subcloned it into a pCS2+ vector (commercially available from Addgene) to prepare a template, and the c.303G>C mutation providing KCNJ5 W101C was introduced by site-directed mutagenesis through PCR. […]
The whole cell current via the expressed KACh channel was measured by a two-electrode voltage clamp method using a GeneClamp 500 amplifier (commercially available from Molecular Devices). […] The perfusate containing the compound (I) with a low concentration was added when the current amplitude was almost steady, and the current amplitude was then recorded while replacing it with a perfusate with a high concentration in the same manner. When the recording was ended, Ba^2+ (3 mM) was added, and the intrinsic leak current was measured.

KCNJ3 WT KACh channel [2] = target: T3, KCNJ3 WT KACh channel (Homo sapiens, UniProt P48544+P48549); assay: two-electrode voltage clamp, KACh channel expressed in Xenopus laevis oocytes (wild type); type: cell-based
T3 construct: expressed in transfected cells; host or cells: Xenopus laevis oocytes (cRNA injection)
T3 sequence (P48549 1-501): T1 sequence (P48549 1-501 N83H) with H83N
T3 sequence (P48544 1-419): T1 sequence (P48544 1-419)
Source text: as §1
The coding sequence of human KCNJ3 WT was obtained by amplifying a human KCNJ3 cDNA clone (commercially available from Invitrogen) by PCR, and subcloning it into a pCS2+ vector (commercially available from Addgene). The c.247A>C mutation providingKCNJ3 N83H was introduced by site-directed mutagenesis through PCR. Similarly, the human KCNJ5 coding sequence was obtained by amplifying a human KCNJ5 cDNA clone (commercially available from Invitrogen) by PCR and subcloning it into a pCS2+ vector. […]
as §2, with “The compound (II) dissolved in DMSO, and a perfusate was prepared so that the final concentration was 0.001, 0.01, 0.03, 0.1, 1, and 10 μM.” left out

[3] = system: KCNJ3 N83H mutant zebrafish; assay: transgenic zebrafish model, heart rate and pulsation rhythm analysis (KCNJ3 N83H); type: in vivo, zebrafish (Danio rerio); settings: for effect on heart rate and bradyarrhythmia: 100 nM in 0.03% sea salt aqueous solution, after 1 hour, 2 day old fry; for effect on sinus arrest / atrioventricular block caused by the N83H mutation: 100 nM, 1 hour after application
Method: (§3) As a comparative example, zebrafish for KCNJ3 WT expression was also prepared in the same manner.
Transgenic zebrafish was prepared by a transposon transfer system using transposon Tol2. Since the cardiac KACh channel was expressed in the sinoatrial node, atrioventricular node, and atrial muscle, a gene construct in which three genes of mCherry were linked with a 2A peptide was prepared so that human KCNJ3 WT or N83H and human KCNJ5, and additionally gene introduction thereof were able to be determined under a fluorescence microscope under the control of the atrial myosin heavy chain (amhc) promoter, which expressed a target gene in zebrafish in an atrial-specific manner (FIG. 3). Next, a small amount of mRNA of the transposase encoded by Tol2 gene and this construct were simultaneously injected into the fertilized egg. When the adult fish prepared in this manner were crossed with wild type zebrafish, fish whose germline transmission was confirmed by generating fry positive for mCherry in the atrium under a fluorescence microscope were used as an F0 founder. When this F0 founder was crossed with wild type zebrafish hspGFF3A, which expressed GFP in both the ventricle and the atrium (Proceedings of the National Academy of Sciences of the United States of America. 2008; 105:1255-1260.), the heart rate and the heart pulsation rhythm were analyzed using 2 day old F1 transgenic zebrafish fry which expressed GFP in the ventricle and GFP and mCherry in the atrium (FIG. 4). Specifically, zebrafish fry was fixed on a glass bottom dish with a diameter of 35 mm with a 0.5% low-melting-point agarose gel, and the fry heart in a 0.03% sea salt aqueous solution was observed under a fluorescence microscope. Based on the video of the heart beat acquired by the camera attached to the fluorescence microscope, detailed analysis of the heart rate and pulsation rhythm was performed using original M mode analysis software (The Journal of clinical investigation. 2007, 117:2812-2824.). The heart rate was measured by the pulsation of the sinus venosus part including the sinus node. Since the expression level of mCherry in the atrium was not different between KCNJ3 WT zebrafish and KCNJ3 N83H mutant zebrafish, the expression level of the KACh channel gene was considered to be the same in both cases. In the KCNJ3 N83H mutant zebrafish, significant atrial enlargement and a bradyarrhythmia phenotype similar to human cases (sinus arrest, sinus bradycardia, sinoatrial block, atrioventricular block) were observed (FIG. 5). Next, the 0.03% sea salt aqueous solution was replaced with a 0.03% sea salt aqueous solution containing the 100 nM compound (II), and the heart beat after 1 hour was analyzed in the same manner.

KCNJ3 WT zebrafish = assay: transgenic zebrafish model, heart rate analysis (KCNJ3 WT); type: in vivo, zebrafish (Danio rerio); settings: 100 nM, after 1 hour
Method: as §3
Transgenic zebrafish was prepared by a transposon transfer system using transposon Tol2. Since the cardiac KACh channel was expressed in the sinoatrial node, atrioventricular node, and atrial muscle, a gene construct in which three genes of mCherry were linked with a 2A peptide was prepared so that human KCNJ3 WT or N83H and human KCNJ5, and additionally gene introduction thereof were able to be determined under a fluorescence microscope under the control of the atrial myosin heavy chain (amhc) promoter, which expressed a target gene in zebrafish in an atrial-specific manner (FIG. 3). […] When the adult fish prepared in this manner were crossed with wild type zebrafish, fish whose germline transmission was confirmed by generating fry positive for mCherry in the atrium under a fluorescence microscope were used as an F0 founder. When this F0 founder was crossed with wild type zebrafish hspGFF3A, which expressed GFP in both the ventricle and the atrium (Proceedings of the National Academy of Sciences of the United States of America. 2008; 105:1255-1260.), the heart rate and the heart pulsation rhythm were analyzed using 2 day old F1 transgenic zebrafish fry which expressed GFP in the ventricle and GFP and mCherry in the atrium (FIG. 4). […]

KCNJ3 WT KACh channel [4] = target: T3, KCNJ3 WT KACh channel; settings: literature (Jin W, Lu Z. Biochemistry 1999); cited from earlier work

inhibitory effect on the KCNJ3 WT KACh channel (KCNJ3 WT KACh channel [2]; two-electrode voltage clamp)	IC50 (KCNJ3 N83H KACh channel; N83H mutant, n=14, p<0.01 vs wild type, read-out: IC50 value, inhibition of whole cell current) [nM]	IC50 (KCNJ3 WT KACh channel [2]; wild type, n=13, read-out: IC50 value, inhibition of whole cell current) [nM]	Molecule	inhibition of the N83H mutant compared with the WT KACh channel (KCNJ3 N83H KACh channel)	inhibitory effect on the KCNJ3 N83H KACh channel (KCNJ3 N83H KACh channel)	inhibitory effect on the KCNJ5 WT/W101C KACh channel [1]	effect on heart rate and bradyarrhythmia [3]	effect on sinus arrest / atrioventricular block caused by the N83H mutation [3]	effect on heart rate (KCNJ3 WT zebrafish)	inhibitory action on the KCNJ3 WT KACh channel (KCNJ3 WT KACh channel [4])
exhibited the inhibitory effect			Cc1cc(CO)nc2cc3c(cc12)OC(C)(C)[C@H](O)[C@H]3NCCc1ccccc1 [compound (I), (3R4S)-7-hydroxymethyl-2,2,9-trimethyl-4-(phenethylamino)-3,4-dihydro-2H-pyra no[2,3-g]quinoline-3-ol]	stronger on N83H than WT	exhibited the inhibitory effect	concentration-dependent inhibitory effect	increasing the heart rate and improving bradyarrhythmia	improved the sinus arrest and atrioventricular block		
	50 ± 12	230 ± 60	CC1(C)Oc2cc([N+](=O)[O-])c(N)cc2[C@H](NCCc2ccccc2)[C@H]1O [compound (II), (3R,4S)-6-amino-3,4-di hydro-2,2-dimethyl-7-nitro-4-(2-phenethylamino)-2H-1-benzopyran-3-ol]	higher affinity for the mutant KACh channel	concentration-dependent inhibitory effect		increasing the heart rate and improving bradyarrhythmia		appropriate increase in the heart rate without causing excess tachycardia	
			Tertiapin-Q [reference compound]					did not improve sinus arrest		inhibitory action
